# Key:
# CuAβ1–16 complex = CuAβ1–16 complex (Homo sapiens, UniProt P05067); type: biochemical; conditions: pH 7.4
# CuZnAβ1–16 = CuZnAβ1–16 (Homo sapiens, UniProt P05067); type: biochemical; conditions: pH 7.4
structure (smiles),measurement,setting,value
"O=C(O)CN(CCN(CC(=O)O)CC(=O)O)CC(=O)O [EDTA, 2,2′,2′′,2′′′-(ethane-1,2-diyldinitrilo)tetraacetic acid]",ROS production: % of Asc consumption in 30 min,CuAβ1–16 complex,11.3%
same,ROS production: % of ROS arrest,CuAβ1–16 complex,88.7%
same,ROS production: % of Asc consumption in 30 min,CuZnAβ1–16,100%
same,ROS production: % of ROS arrest,CuZnAβ1–16,0%

# Reference: paper PMC11503657 (Chemical Science, 2024)
